Assay: Oil recovery from oil saturated formation core by brine displacement followed by DMS displacement
Settings: after waterflooding with brine
Protocol: Incremental recovery of oil from a formation core using an oil recovery formulation consisting of dimethyl sulfide following oil recovery from the core by water-flooding was measured to evaluate the effectiveness of DMS as a tertiary oil recovery agent.
Two 5.02 cm long Berea sandstone cores with a core diameter of 3.78 cm and a permeability between 925 and 1325 mD were saturated with a brine having a composition as set forth in Table 7.
After saturation of the cores with brine, the brine was displaced by a Middle Eastern Asphaltic crude oil having the characteristics as set forth above in Table 3 to saturate the cores with oil.
Oil was recovered from each oil saturated core by the addition of brine to the core under pressure and by subsequent addition of DMS to the core under pressure. Each core was treated as follows to determine the amount of oil recovered from the core by addition of brine followed by addition of DMS. Oil was initially displaced from the core by addition of brine to the core under pressure. A confining pressure of 1 MPa was applied to the core during addition of the brine, and the flow rate of brine to the core was set at 0.05 ml/min. The core was maintained at a temperature of 50° C. during displacement of oil from the core with brine. […]

oil recovered, of the oil remaining in the core after the waterflood: approximately 60%
Structure (SMILES): CSC [Dimethyl Sulfide, dimethyl sulfide]

From US9399904B2, “Oil recovery system and method” (SHELL OIL COMPANY, priority 2013, dated 2016)
